From patent US9302988B2, “Fluoromethyl-substituted pyrrole carboxamides” (GRÜNENTHAL GMBH, priority 2012, dated 2016)

The molecules below were run against T1, Human CaV2.2 channels (Homo sapiens, UniProt Q00975) (assay: Fluorescent assay for CaV2.2 channels using potassium depolarization to induce channel opening (FLIPR, Fluo-4)). Conditions: 3 μM test compound, 30 mM KCl, HEK293 cells stably expressing human CaV2.2; read-out: %-Inhib (CaV2.2) @3 μM @30 mM KCl.
T1 construct: expressed in transfected cells
T1 sequence (Q00975 whole entry): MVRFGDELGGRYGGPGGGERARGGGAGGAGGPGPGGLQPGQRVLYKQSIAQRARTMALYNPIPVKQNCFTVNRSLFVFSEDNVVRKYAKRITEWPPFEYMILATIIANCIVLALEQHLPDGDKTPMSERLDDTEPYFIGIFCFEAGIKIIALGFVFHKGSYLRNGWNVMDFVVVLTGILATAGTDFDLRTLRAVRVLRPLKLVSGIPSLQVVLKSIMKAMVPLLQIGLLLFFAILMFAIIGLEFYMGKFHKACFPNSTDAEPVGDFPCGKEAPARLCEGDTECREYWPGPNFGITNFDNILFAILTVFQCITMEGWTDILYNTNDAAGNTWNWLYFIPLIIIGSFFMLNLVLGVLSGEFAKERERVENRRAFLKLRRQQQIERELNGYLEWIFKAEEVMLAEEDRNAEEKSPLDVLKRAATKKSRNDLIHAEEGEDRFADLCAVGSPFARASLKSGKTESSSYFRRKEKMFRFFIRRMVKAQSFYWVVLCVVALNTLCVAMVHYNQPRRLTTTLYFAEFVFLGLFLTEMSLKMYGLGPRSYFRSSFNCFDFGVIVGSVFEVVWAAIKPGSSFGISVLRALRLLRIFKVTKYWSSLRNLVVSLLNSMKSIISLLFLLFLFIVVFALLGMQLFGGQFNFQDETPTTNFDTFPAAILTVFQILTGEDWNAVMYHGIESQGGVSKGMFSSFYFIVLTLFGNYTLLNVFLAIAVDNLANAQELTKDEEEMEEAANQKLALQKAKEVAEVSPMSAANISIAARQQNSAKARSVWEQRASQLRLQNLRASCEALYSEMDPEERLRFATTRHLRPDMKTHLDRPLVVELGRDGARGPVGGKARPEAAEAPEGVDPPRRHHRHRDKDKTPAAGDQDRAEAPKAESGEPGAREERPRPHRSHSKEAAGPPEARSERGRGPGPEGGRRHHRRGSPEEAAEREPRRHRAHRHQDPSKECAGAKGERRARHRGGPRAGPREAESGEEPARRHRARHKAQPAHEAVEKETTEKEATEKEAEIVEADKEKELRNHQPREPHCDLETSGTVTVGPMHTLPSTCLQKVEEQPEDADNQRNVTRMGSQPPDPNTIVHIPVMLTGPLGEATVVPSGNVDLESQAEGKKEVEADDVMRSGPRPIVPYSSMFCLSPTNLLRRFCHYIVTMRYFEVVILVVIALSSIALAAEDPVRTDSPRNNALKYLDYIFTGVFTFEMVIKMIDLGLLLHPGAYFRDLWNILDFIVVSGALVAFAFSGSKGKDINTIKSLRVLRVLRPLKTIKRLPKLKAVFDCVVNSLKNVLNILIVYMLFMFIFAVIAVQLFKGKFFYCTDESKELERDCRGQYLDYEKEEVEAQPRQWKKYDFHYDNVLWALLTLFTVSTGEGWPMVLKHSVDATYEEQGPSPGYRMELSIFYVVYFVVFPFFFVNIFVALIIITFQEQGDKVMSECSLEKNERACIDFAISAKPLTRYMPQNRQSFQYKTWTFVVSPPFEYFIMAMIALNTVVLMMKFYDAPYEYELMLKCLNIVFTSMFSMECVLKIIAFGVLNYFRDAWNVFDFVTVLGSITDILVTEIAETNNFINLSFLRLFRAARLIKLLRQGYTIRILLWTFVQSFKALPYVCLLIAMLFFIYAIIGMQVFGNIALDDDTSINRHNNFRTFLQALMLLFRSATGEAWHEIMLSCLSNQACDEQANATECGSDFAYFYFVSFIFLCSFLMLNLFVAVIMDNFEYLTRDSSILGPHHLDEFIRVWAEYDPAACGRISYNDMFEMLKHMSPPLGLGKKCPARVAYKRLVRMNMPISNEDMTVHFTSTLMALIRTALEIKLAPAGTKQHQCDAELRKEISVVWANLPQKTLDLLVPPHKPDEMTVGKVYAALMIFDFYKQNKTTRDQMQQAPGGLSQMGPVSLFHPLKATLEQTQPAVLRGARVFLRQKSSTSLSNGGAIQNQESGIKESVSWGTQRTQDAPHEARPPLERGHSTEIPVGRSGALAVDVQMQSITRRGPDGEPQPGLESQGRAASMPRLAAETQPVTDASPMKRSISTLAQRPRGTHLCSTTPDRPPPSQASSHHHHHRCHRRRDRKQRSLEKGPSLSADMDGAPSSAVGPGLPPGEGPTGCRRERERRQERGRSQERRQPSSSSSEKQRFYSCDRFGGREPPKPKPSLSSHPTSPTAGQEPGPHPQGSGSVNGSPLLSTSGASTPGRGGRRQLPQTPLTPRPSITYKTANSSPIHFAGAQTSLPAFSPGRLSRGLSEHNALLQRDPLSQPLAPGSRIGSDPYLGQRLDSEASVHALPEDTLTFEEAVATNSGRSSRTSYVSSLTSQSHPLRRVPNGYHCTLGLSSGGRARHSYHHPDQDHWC
T1 sequence (P54289 25-1103, further chain): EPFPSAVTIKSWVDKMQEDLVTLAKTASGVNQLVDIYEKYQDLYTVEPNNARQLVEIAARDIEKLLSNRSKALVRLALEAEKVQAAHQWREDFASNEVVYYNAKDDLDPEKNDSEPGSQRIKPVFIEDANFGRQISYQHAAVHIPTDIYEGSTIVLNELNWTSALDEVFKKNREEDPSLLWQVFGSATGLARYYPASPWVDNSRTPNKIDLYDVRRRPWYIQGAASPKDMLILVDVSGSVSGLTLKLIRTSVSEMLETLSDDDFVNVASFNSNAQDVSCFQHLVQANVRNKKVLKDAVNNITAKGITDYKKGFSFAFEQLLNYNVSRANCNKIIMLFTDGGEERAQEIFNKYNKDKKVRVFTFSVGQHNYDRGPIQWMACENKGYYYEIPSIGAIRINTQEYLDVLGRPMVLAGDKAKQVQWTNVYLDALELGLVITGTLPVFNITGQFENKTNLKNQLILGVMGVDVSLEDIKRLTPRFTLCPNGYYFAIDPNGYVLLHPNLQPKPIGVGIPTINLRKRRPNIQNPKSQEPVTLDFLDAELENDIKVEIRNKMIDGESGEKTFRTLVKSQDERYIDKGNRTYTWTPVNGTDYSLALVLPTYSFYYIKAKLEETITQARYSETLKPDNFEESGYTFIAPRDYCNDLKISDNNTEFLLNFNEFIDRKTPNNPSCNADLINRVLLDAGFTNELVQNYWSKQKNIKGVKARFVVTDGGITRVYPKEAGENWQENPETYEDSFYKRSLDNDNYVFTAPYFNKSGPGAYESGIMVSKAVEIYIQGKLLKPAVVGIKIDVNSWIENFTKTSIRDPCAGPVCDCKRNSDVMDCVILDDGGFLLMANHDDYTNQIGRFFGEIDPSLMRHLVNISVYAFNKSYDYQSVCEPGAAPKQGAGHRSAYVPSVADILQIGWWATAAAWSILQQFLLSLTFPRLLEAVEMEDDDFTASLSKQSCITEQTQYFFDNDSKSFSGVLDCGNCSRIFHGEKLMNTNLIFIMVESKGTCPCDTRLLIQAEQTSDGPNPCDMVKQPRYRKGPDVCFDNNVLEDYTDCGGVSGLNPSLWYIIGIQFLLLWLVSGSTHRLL
T1 sequence (P54284 whole entry, further chain): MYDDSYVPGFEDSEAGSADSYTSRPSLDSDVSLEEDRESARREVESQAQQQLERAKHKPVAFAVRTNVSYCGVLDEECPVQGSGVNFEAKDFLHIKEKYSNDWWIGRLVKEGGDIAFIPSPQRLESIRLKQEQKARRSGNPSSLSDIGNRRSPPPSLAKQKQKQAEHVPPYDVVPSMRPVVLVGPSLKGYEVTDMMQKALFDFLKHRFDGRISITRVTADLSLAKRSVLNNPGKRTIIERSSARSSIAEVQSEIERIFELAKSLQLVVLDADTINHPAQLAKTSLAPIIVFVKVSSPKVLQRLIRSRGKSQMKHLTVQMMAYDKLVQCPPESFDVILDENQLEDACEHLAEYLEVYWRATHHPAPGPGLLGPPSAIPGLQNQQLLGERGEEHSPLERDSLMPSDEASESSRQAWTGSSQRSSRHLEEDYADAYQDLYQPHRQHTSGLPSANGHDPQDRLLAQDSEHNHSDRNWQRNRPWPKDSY
Type: cell-based
Source text: In the process, the Ca^2+ influx is quantified in the FLIPR assay with the aid of a Ca^2+-sensitive dye (type Fluo-4, Molecular Probes Europe BV, Leiden, the Netherlands) in a fluorescent imaging plate reader (FLIPR 3, Molecular Devices, Sunnyvale, USA), as described hereinafter.
2.1 Fluorescent Assay for CaV2.2 Channels Using Potassium Depolarization to Induce Channel Opening
Human CaV2.2 channels were stably expressed in HEK293 cells together with alpha2-delta and beta subunits of voltage gated calcium channels. In addition, an inwardly rectifying potassium channel (Kir2.3) was stably expressed in these cells to augment control of the cell membrane potential by the concentration of extracellular potassium ions. Raise of the extracellular potassium concentration leads to depolarization of the membrane potential and thus regulates the voltage dependent state of CaV2.2 channels. For preparation, cells were seeded in black poly-D-lysine coated 96-well plates (Becton Dickinson, Biocoat 4640) in 100 μl medium [500 ml DMEM/F-12 plus Glutamax (Invitrogen 31331-093) plus 5.5 ml MEM NEAA 100× (Invitrogen 11140-035) plus 50 ml FBS decomplemented (Invitrogen 10270-106) plus 4.4 ml Geneticin (Invitrogen 10131-027) plus 1.1 ml Hygromycin B (Invitrogen 10687-010) plus 68.75 μl Puromycin (Clontech, 631306)] at a cell density of 45.000 cells per well.
Plates were incubated at 37° C. (5% CO2) for 20 to 23 hours. On the day of experiment medium was discarded and cells were loaded with Fluo 4 by addition of 100 μl of basic assay buffer (10 mM HEPES, 30 mM KCl, 120 mM NaCl, 0.8 mM CaCl2, 1.7 mM MgCl2, 10 mM Glucose, 0.1% BSA. pH 7.4) containing 2 μM Fluo 4 (Molecular Probes; F-14201), 0.01% pluronic acid (Molecular Probes; P-6866) and 2.5 mM probenecid (Molecular Probes; P36400). Cells were incubated in the dark at 25° C. for 60 min. Then the dye containing buffer was discarded and 100 μl basic assay buffer was added. Subsequently cells were incubated in the dark at 25° C. for 15 min. 25 μl of basic assay buffer with or without test compound were added and cells were incubated again in the dark at 25° C. for 15 min. Fluorescence intensity was measured on a FLIPR 3 instrument (Molecular Devices Corp., Sunnyvale, Calif.) with excitation at 480 nm and emission at 535 nm. After continuously reading fluorescence for 30 sec, 50 μl of basic assay buffer containing 210 mM KCl (NaCl omitted) were added for depolarization. Peak fluorescent signal intensity was determined and the amplitude of the peak signal, normalized to base line, was used to measure channel inhibition by test compounds.
O=C(c1c(-c2ccc(Cl)cc2)cc(C(F)(F)F)n1Cc1ccccc1)N1CCOCC1 [SC-01, [1-Benzyl-3-(4-chlorophenyl)-5-(trifluoromethyl)-1H-pyrrol-2-yl]-morpholin-4-yl-methanone] gave an inhibition at 3 µM of over 95%. Work on CN(CC(C)(C)C)C(=O)c1c(-c2ccc(Cl)cc2)cc(C(F)(F)F)n1Cc1ccccc1 [SC-02, 1-Benzyl-3-(4-chlorophenyl)-N-(2,2-dimethyl-propyl)-N-methyl-5-(trifluoromethyl)-1H-pyrrole-2-carboxylic acid amide] yielded an inhibition at 3 µM of 75 to 95%. With Cc1c(-c2ccc(Cl)cc2)c(C(=O)N2CCOCC2)n(Cc2ccccc2)c1C(F)(F)F [SC-03, [1-Benzyl-3-(4-chlorophenyl)-4-methyl-5-(trifluoromethyl)-1H-pyrrol-2-yl]-morpholin-4-yl-methanone] the inhibition at 3 µM was over 95%. Work on Cc1c(-c2ccc(Cl)cc2)c(C(=O)N(C)CC(C)(C)C)n(Cc2ccccc2)c1C(F)(F)F [SC-04, 1-Benzyl-3-(4-chlorophenyl)-N-(2,2-dimethyl-propyl)-N,4-dimethyl-5-(trifluoromethyl)-1 H-pyrrole-2-carboxylic acid amide] yielded an inhibition at 3 µM of 75 to 95%. Molecule Cc1c(-c2ccc(Cl)cc2)c(C(=O)N2CC(O)C2)n(Cc2ccccc2)c1C(F)(F)F [SC-05, [1-Benzyl-3-(4-chlorophenyl)-4-methyl-5-(trifluoromethyl)-1H-pyrrol-2-yl]-(3-hydroxy-azetidin-1-yl)-methanone] has an inhibition at 3 µM of 75 to 95%. With Cc1c(-c2ccc(Cl)cc2)c(C(=O)N(C)CCS(C)(=O)=O)n(Cc2ccccc2)c1C(F)(F)F [SC-06, 1-Benzyl-3-(4-chlorophenyl)-N,4-dimethyl-N-(2-methylsulfonyl-ethyl)-5-(trifluoromethyl)-1H-pyrrole-2-carboxylic acid amide] the inhibition at 3 µM was over 95%. Cc1c(-c2ccc(Cl)cc2)c(C(=O)N2CCNC(=O)C2)n(Cc2ccccc2)c1C(F)(F)F [SC-08, 4-[1-Benzyl-3-(4-chlorophenyl)-4-methyl-5-(trifluoromethyl)-1H-pyrrole-2-carbonyl]-piperazin-2-one] was tested, and the inhibition at 3 µM was 75 to 95%. Cc1c(-c2ccc(Cl)cc2)c(C(=O)N2CCN(C)C(=O)C2)n(Cc2ccccc2)c1C(F)(F)F [SC-09, 4-[1-Benzyl-3-(4-chlorophenyl)-4-methyl-5-(trifluoromethyl)-1H-pyrrole-2-carbonyl]-1-methyl-piperazin-2-one] showed an inhibition at 3 µM of 75 to 95%. In the case of Cc1c(-c2ccc(Cl)cc2)c(C(=O)NC2CCOCC2)n(Cc2ccccc2)c1C(F)(F)F [SC-10, 1-Benzyl-3-(4-chlorophenyl)-4-methyl-N-tetrahydro-pyran-4-yl-5-(trifluoromethyl)-1H-pyrrole-2-carboxylic acid amide], the inhibition at 3 µM is reported as 75 to 95%. Cc1c(-c2ccc(Cl)cc2)c(C(=O)N(C)C2CCOCC2)n(Cc2ccccc2)c1C(F)(F)F [SC-11, 1-Benzyl-3-(4-chlorophenyl)-N,4-dimethyl-N-tetrahydro-pyran-4-yl-5-(trifluoromethyl)-1H-pyrrole-2-carboxylic acid amide] showed an inhibition at 3 µM of over 95%. Cc1c(-c2ccc(Cl)cc2)c(C(=O)NC2(CO)CC2)n(Cc2ccccc2)c1C(F)(F)F [SC-16, 1-Benzyl-3-(4-chlorophenyl)-N-[1-(hydroxymethyl)-cyclopropyl]-4-methyl-5-(trifluoromethyl)-1H-pyrrole-2-carboxylic acid amide] showed an inhibition at 3 µM of 75 to 95%. In the case of Cc1c(-c2ccc(Cl)cc2)c(C(=O)N2CCC(O)CC2)n(Cc2ccccc2)c1C(F)(F)F [SC-17, [1-Benzyl-3-(4-chlorophenyl)-4-methyl-5-(trifluoromethyl)-1H-pyrrol-2-yl]-(4-hydroxy-piperidin-1-yl)-methanone], the inhibition at 3 µM is reported as over 95%. In the case of Cc1c(-c2ccc(Cl)cc2)c(C(=O)N(C)C)n(Cc2ccccc2)c1C(F)(F)F [SC-18, 1-Benzyl-3-(4-chlorophenyl)-N,N,4-trimethyl-5-(trifluoromethyl)-1H-pyrrole-2-carboxylic acid amide], the inhibition at 3 µM is reported as 75 to 95%.
